According to US6462038B1, “Androgen receptor modulator compounds and methods” (Ligand Pharmaceuticals, Inc., priority 1999, dated 2002):
Read-outs that look alike come from different tables or passages of the source.

Legend:
Type in all cases: cell-based
PR = biological target: T1, PR (Homo sapiens, UniProt P06401); test: co-transfection assay, PR antagonist (in presence of progesterone)
T1 construct: expressed in transfected cells; host or cells: CV-1 cells
T1 sequence (P06401 1-933): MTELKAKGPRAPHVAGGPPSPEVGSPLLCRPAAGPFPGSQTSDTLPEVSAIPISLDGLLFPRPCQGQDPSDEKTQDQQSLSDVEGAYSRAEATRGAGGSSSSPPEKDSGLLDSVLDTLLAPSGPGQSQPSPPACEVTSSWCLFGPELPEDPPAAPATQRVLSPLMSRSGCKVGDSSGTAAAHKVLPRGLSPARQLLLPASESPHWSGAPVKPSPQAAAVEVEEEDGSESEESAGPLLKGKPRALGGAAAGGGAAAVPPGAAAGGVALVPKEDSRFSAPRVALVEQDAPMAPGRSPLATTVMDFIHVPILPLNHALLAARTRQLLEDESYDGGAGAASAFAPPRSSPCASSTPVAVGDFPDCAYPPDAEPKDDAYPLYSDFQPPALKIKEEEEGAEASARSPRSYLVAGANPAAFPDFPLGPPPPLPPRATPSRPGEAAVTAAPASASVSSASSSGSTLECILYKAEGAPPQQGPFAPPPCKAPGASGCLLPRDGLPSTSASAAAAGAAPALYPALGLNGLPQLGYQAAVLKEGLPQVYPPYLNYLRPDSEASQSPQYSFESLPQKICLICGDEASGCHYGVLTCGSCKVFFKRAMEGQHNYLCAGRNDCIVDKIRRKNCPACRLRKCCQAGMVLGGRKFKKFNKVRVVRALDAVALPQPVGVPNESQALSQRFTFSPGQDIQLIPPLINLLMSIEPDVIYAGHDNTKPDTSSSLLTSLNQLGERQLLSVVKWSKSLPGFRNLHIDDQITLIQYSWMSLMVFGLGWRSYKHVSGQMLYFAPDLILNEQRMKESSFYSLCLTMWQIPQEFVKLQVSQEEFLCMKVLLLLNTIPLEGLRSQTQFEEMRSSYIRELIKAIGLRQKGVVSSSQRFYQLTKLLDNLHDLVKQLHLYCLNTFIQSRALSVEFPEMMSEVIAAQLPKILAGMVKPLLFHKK
Protocol: (§1) CV-1 cells (African green monkey kidney fibroblasts) were cultured in the presence of Dulbecco's Modified Eagle Medium (DMEM) supplemented with 10% charcoal resin-stripped fetal bovine serum (CH-FBS) then transferred to 96-well microtiter plates one day prior to transfection.
(§2) Three to four replicates were used for each sample.
(§3) After 40 hours, the cells were washed with PBS, lysed with a Triton X-100-based buffer and assayed for LUC and β-Gal activities using a luminometer or spectrophotometer, respectively. For each replicate, the normalized response (NR) was calculated as: […]

MR = biological target: T2, MR (Homo sapiens, UniProt P08235); test: co-transfection assay, MR antagonist
T2 construct: expressed in transfected cells; host or cells: CV-1 cells
T2 sequence (P08235 1-984): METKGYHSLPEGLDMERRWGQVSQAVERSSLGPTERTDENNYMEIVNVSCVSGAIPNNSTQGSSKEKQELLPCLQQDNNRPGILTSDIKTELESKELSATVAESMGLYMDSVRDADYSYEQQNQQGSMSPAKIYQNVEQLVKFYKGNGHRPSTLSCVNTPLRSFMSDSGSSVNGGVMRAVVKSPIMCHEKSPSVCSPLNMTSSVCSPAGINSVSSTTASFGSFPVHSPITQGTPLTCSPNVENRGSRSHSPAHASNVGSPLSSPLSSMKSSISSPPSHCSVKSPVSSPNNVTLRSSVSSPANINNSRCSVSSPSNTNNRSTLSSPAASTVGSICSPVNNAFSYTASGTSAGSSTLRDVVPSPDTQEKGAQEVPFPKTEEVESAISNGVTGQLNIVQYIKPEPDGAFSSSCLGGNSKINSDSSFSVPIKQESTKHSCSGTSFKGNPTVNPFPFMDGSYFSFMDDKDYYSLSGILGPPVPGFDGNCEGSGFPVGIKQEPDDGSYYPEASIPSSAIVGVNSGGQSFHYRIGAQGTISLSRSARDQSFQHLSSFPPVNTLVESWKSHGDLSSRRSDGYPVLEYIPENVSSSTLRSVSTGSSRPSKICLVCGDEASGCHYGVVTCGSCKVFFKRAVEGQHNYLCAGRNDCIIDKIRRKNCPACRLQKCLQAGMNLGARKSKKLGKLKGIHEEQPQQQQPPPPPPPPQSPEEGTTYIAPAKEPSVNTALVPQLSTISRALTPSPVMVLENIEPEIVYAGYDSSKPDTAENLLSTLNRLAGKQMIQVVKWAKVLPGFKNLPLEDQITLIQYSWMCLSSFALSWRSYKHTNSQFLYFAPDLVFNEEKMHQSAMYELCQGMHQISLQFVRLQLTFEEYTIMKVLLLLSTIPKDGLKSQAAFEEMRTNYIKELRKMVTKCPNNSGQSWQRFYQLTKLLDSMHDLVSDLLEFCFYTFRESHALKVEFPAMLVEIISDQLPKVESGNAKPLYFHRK
Protocol: as §1, §2, §3

hAR = biological target: T3, hAR (Homo sapiens, UniProt P10275); test: co-transfection assay, AR agonist, CV-1 cells; details: for AR Agonist CV-1 Cells Efficacy (%): hAR in CV-1 cells, relative to maximum LUC production by reference agonist
T3 construct: expressed in transfected cells; host or cells: CV-1 cells (African green monkey kidney fibroblasts)
T3 sequence (P10275 1-920): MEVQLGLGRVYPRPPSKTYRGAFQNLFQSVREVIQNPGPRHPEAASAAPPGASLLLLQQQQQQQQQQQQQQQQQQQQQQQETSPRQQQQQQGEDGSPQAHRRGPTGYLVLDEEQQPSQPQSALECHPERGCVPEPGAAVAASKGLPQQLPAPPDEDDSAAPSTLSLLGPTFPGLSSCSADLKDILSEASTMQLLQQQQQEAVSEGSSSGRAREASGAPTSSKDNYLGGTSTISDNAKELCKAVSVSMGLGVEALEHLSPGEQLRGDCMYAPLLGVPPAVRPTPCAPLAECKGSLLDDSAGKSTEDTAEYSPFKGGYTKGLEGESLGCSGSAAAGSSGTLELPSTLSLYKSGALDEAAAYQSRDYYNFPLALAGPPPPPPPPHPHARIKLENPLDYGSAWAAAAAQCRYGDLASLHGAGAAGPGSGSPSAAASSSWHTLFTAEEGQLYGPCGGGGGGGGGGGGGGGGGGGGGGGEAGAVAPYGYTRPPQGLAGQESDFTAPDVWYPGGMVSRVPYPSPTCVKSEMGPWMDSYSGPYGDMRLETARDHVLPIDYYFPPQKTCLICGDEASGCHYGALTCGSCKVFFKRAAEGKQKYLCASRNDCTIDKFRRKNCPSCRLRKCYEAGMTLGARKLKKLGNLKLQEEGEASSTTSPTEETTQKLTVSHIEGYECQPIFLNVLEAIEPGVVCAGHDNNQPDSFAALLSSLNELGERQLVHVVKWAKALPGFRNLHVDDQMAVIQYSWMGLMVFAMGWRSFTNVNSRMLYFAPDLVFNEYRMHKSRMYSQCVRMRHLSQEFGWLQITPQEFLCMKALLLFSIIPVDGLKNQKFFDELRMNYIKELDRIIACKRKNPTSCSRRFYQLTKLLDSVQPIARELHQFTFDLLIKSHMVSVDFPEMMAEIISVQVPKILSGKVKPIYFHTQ

[1] = read-out: AR Potency Agon, Table 2

SMILES | IC50 (PR) [µM] | IC50 (MR) [µM] | EC50 (hAR) [µM] | AR Agonist CV-1 Cells Efficacy (%) (hAR) | EC50 (hAR; [1]) [µM]
O=c1cc(C(F)(F)F)c2cc3c(cc2[nH]1)OCCN3CC(F)(F)F [Compound 105, 1,2,3,6-Tetrahydro-1-(2,2,2-trifluoroethyl)-9-(trifluoromethyl)-7H-[1,4]oxazino[3,2-g]quinolin-7-one] | 3 | > 10 | – | – | –
CCN1CCOc2cc3c(cc21)c(C(F)(F)F)cc(=O)n3C [Compound 104, 1-Ethyl-1,2,3,6-tetrahydro-6-methyl-9-(trifluoromethyl)-7H-[1,4]oxazino[3,2-g]quinolin-7-one] | 2 | 1.8 | > 10 | na (na = not active (i.e. efficacy of < 20 and potency of > 10,000 nM for the cotransfection assay, and Ki > 1000 nM for the binding assay)) | > 10
CN1CCOc2cc3c(cc21)c(C(F)(F)F)cc(=O)n3C [Compound 102, 1,2,3,6-Tetrahydro-1,6-dimethyl-9-(trifluoromethyl)-7H-[1,4]oxazino[3,2-g]quinolin-7-one] | 4.1 | > 10 | > 10 | na^1 (na = not active (i.e. efficacy of < 20 and potency of > 10,000 nM for the cotransfection assay, and Ki > 1000 nM for the binding assay)) | > 10
O=C1COc2cc3[nH]c(=O)cc(C(F)(F)F)c3cc2N1CC(F)(F)F [Compound 137, 1,6-Dihydro-1-(2,2,2-trifluoroethyl)-9-(trifluoromethyl)-3H-[1,4]oxazino[3,2-g]-quinolin-2,7-dione] | > 10 | > 10 | > 10 | na (na = not active (i.e. efficacy of < 20 and potency of > 10,000 nM for the cotransfection assay, and Ki > 1000 nM for the binding assay)) | > 10
